Columns and labels:
[1] = test system: HCT-116; settings: continuous incubation over 72 h, test MTT
Experimental: (§2) Data analysis consists in determining IC50 concentration of the protein (in ng/ml), at which the 50% reduction in the number of cells occurs in the population treated compared to control cells. Results were analyzed using GraphPad Prism 5.0 software. […] Cell culture medium was diluted to a defined density (10^4-10^5 cells per 100 μl). Then 100 μl of appropriately diluted cell suspension was applied to a 96-well plate in triplicates. Thus prepared cells were incubated for 24 h at 37° C. in 5% or 10% CO2, depending on the medium used, and then to the cells (in 100 μl of medium) further 100 μl of the medium containing various concentrations of tested proteins were added. […] After incubation of the cells with tested proteins over the period of next 72 hours, which is equivalent to 3-4 times of cell division, the medium with the test protein was added with 20 ml of MTT working solution [5 mg/ml], and incubation was continued for 3 h at 37° C. in 5% CO2. Then the medium with MTT solution was removed, and formazan crystals were dissolved by adding 100 μl of DMSO. After stirring, the absorbance was measured at 570 nm (reference filter 690 nm).
(§3) Each experiment represents the average value of at least two independent experiments performed in triplicates.

[2] = test system: human colon cancer Colo205; experiment: Colo205 colon cancer xenograft in Crl:SHO-Prkdc^scidHr^hr mice; type: in vivo; settings: 30 mg/kg i.v. six times every second day, 33rd day
Experimental: (§1) Antitumor activity of protein preparations was tested in a mouse model of human colon cancer HCT116, human colon cancer Colo205, human colon cancer model SW620, human liver cancer model HepG2, and human lung cancer models NCI-H460 and NCI-H460-Luc2.
The HCT116 (in mice Crl:CD1-Foxn1^nu 1), Colo205, NCI-H460, NCI-H460-Luc2 cells were maintained in RPMI 1640 medium (Hyclone, Logan, Utah, USA) mixed in the ratio of 1:1 with Opti-MEM (Invitrogen, Cat.22600-134) supplemented with 10% fetal calf serum and 2 mM glutamine. On the day of mice grafting, the cells were detached from the support by washing the cells with trypsin (Invitrogen), then the cells were centrifuged at 1300 rpm, 4° C., 8 min., suspended in HBSS buffer (Hanks medium), counted and diluted to the concentration of 25×10^6 cells/ml.
Examination of antitumor activity of proteins of the invention was conducted on 7-9 week-old CD-nude (Crl:CD1-Foxn1^nu 1) or 4-6 week-old Crl:SHO-Prkdc^scidHr^hr mice obtained from Charles River Germany. Mice were kept under specific pathogen-free conditions with free access to food and demineralised water (ad libitum). All experiments on animals were carried in accordance with the guidelines: “Interdisciplinary Principles and Guidelines for the Use of Animals in Research. […]

[3] = test system: human colon cancer model SW620; experiment: SW620 colon cancer xenograft in Crl:SHO-Prkdc^scidHr^hr mice; type: in vivo; settings: 30 mg/kg i.v. six times every second day, 31st day
Experimental: as §1
The HCT116 (in mice Crl:SHO-Prkdc^scidHr^hr) were alternatively maintained in McCoy's medium (Hyclone, Logan, Utah, USA) supplemented with 10% fetal calf serum and 2 mM glutamine. On the day of mice grafting, the cells were detached from the support by washing the cells with trypsin (Invitrogen), then the cells were centrifuged at 1300 rpm, 4° C., 8 min., suspended in HBSS buffer (Hanks medium), counted and diluted to the concentration of 25×10^6 cells/ml. SW620 cells were maintained in DMEM (HyClone, Logan, Utah, USA) supplemented with 10% fetal calf serum and 2 mM glutamine. On the day of mice grafting, the cells were detached from the support by washing the cells with trypsin (Invitrogen), then the cells were centrifuged at 1300 rpm, 4° C., 8 min., suspended in HBSS buffer (Hanks medium), counted and diluted to the concentration of 25×10^6 cells/ml.
Examination of antitumor activity of proteins of the invention was conducted on 7-9 week-old CD-nude (Crl:CD1-Foxn1^nu 1) or 4-6 week-old Crl:SHO-Prkdc^scidHr^hr mice obtained from Charles River Germany. […]

[4] = test system: human liver cancer model HepG2; experiment: HepG2 liver cancer xenograft in Crl:SHO-Prkdc^scidHr^hr mice; type: in vivo; settings: 30 mg/kg i.v. six times every second day, 33rd day
Experimental: as §1
The HepG2cells were maintained in MEM (HyClone, Logan, Utah, USA) supplemented with 10% fetal calf serum and 2 mM glutamine. On the day of mice grafting, the cells were detached from the support by washing the cells with trypsin (Invitrogen), then the cells were centrifuged at 1300 rpm, 4°C., 8 min., suspended in HBSS buffer (Hanks medium), counted and diluted to the concentration of 25×10^6 cells/ml.
Examination of antitumor activity of proteins of the invention was conducted on 7-9 week-old CD-nude (Crl:CD1-Foxn1^nu 1) or 4-6 week-old Crl:SHO-Prkdc^scidHr^hr mice obtained from Charles River Germany. Mice were kept under specific pathogen-free conditions with free access to food and demineralised water (ad libitum). All experiments on animals were carried in accordance with the guidelines: “Interdisciplinary Principles and Guidelines for the Use of Animals in Research. Marketing and Education” issued by the New York Academy of Sciences' Ad Hoc Committee on Animal Research and were approved by the IV Local Ethics Committee on Animal Experimentation in Warsaw (No. 71/2009). […]

[5] = test system: NCI-H460; settings: continuous incubation over 72 h, test MTT
Experimental: as §2, §3

## rhTRAIL114-281: recombinant human soluble TRAIL, amino acids 114-281 of hTRAIL, used as the comparative reference
[1]
  HCT116 IC50: 0.02557 µg/mL
[2]
  tumor growth inhibition (TGI) relative to the control: 18.8%
[3]
  tumor growth inhibition (TGI) relative to the control: −9%
[4]
  tumor growth inhibition (TGI) relative to the control: 12.6%
[5]
  NCI-H460 IC50: 0.06968 µg/mL
